{"source": "patent EP0944595B1", "about": "“5-CYCLO INDOLE COMPOUNDS AS 5-HT1D RECEPTOR LIGANDS” (NPS Allelix Corp., priority 1996, dated 1998)", "tested_on": "protein extravasation", "experiment": "Inhibition of protein extravasation, trigeminal stimulation assay", "type": "in vivo, Guinea pigs", "conditions": "guinea pig dura mater, [125I]-BSA extravasation after stimulation of the right trigeminal ganglion", "procedure": "Compounds of the inventions were evaluated for their ability to block neurogenic inflammation via inhibition of protein extravasation using the trigeminal stimulation assay as described in Markowitz, et al. J, Neurosci. 1987, 7:4129 and Lee, et al. Brain Res, 1993, 626:303. This is believed to indicate a compound's ability to act as an agonist at the 5-HT1Da and/or 5-HT1F receptors.\nGuinea pigs were anesthetized with pentobarbitone sodium (60 mg kg^-1, i.p.). Animals were placed in a stereotaxic frame (DKI 900, David Kopf Instruments, Tujunga, CA, U.S.A.). The right femoral vein was exposed and [^125I]-BSA ([…]) was injected as a bolus. With the incisor bar set at -1.5 mm from the horizontal line, the calvarium was exposed by a midline incision. Symmetrical burr holes (2 mm in diameter) were drilled at 3.7 mm posterior to the bregma and 3.2 mm lateral to the sagittal suture. Bipolar electrodes (50 mm shaft, Rhodes Medical Instruments, Woodland Hills, CA, U.S.A.) were lowered into the trigeminal ganglia to a depth of 9.5 mm from the dura mater overlying the dorsal surface of the brain. […] Radioactivity was determined on two sides with a gamma counter (Micromedic 4/600, Micromedic Systems, Inc., Huntsville, AL, U.S.A.) as previously described (Markowitz, et al., 1987 and Lee, et al., 1993).", "data": [{"smiles": "CNS(=O)(=O)Cc1ccc2[nH]cc(CCN(C)C)c2c1", "note": "[sumatriptan]", "values": [{"measurement": "ID50", "value": "3.3 to 7", "unit": "nM/kg"}]}]}
